The source of these data is EP0230023B1, “Pharmaceutical compositions for the enhancement of wound healing” (MARION MERRELL DOW INC., priority 1985, dated 1987).

One test deals with granulation tissue. Nature of the test: Subcutaneous Ivalon sponge implantation, histological analysis of granulation tissue formation. It counts as in vivo, Sprague-Dawley rats. Particulars: for Sponge: score on the 0-4 scale, tested in a similar manner to collagen/sucrose octasulfate, potassium salts. As for the experimental part:
By means of subcutaneous implantation of Ivalon sponges the phase of granulation tissue formation in the repair process can be evaluated. Following a vigorous cleanup procedure the sponge material evokes only minimal inflammatory response. Sterile sponges prepared as set forth in Example 12 were injected with a 50 µl suspension of collagen/sucrose octasulfate suspension prepared as in Example 12. […] The sponges were surgically implanted into 350-500 g, male Sprague-Dawley rats. Before the implantation procedure three rats were anesthetized and their dorsal surfaces shaved and wiped with Predodyne (West Chemical Products, Lynbrook, N.Y.). Six 6 mm incisions were cut in groups of two (one on each side of the vertebral column rostrally, centrally and caudally), spaced equi-distant from each other between the pectoral and pelvic girdles on the dorsal surface. At each incision a pocket was made between the panniculus carnosus and the dermis and two sponges inserted into it, one rostrally and the other caudally; a total of 12 sponges were thus implanted in each animal. The position of each test preparation was alternated between the rostral, central and caudal positions to control the variation due to anatomical location. The incisions were closed with 11-mm Michel wound clips (Propper, Long Island City, N.Y.). Seven days following implantation the animals were sacrificed and the sponges surgically removed with their adhered connective tissue capsules. Controls, sponges injected with either PBS or collagen only were treated in a similar manner. In all, approximately 120 sponges per group were used in the study and randomly selected for biochemical and histologic analysis. The sponges were fixed in formalin and embedded in either plastic or Paraplast following dehydration. Sections were stained with hemotocylin and eosin, trichrome, silver or PAS. […] Mesenchymal cell infiltration was also scored on a predetermined scale from 0-4. […] Although the whole sponge area was used for analysis we noted that the most striking differences between the various treatments were evident in the center of the sponge. Therefore, the histologic appearance of the central zone was selected for presentation.

In the next test the test system is rabbit corneas. Nature of the test: Rabbit cornea assay for angiogenesis. It counts as in vivo. The following applies: grade on scale 0-4+ in rabbit cornea; potassium salts. The protocol:
This may offer an explanation for the dense vascular bed that characterized the granulation tissue in the in-vivo experiments. Sucrose octasulate at concentrations of 0.1 to 100 µg/ml was encapsulated in Hydron and implanted in rabbit corneas. The method used was that described in Surgery 96:48-54, 1984. The […] solution (sucrose octasulfate or PBS) was mixed with an equal volume of Hydron and allowed to polymerize under reduced pressure. […] Eyes were evaluated at days 1 through 14 post-implantation for gross inflammation and, as described by Hunt, et al, in Surgery 96:48-54, 1984, for angiogenesis. Corneal neovascularization was graded on a scale of 0-4+ (integers only being assigned). Zero denotes a normal eye with no ingrowth on limbal vessels into the corneal stroma; 1+, up to 1 mm of capillary ingrowth in a localized arc adjacent to the injection site; 2+, […] ingrowth; 3+, 2-3 mm ingrowth; and 4+, 3 mm or greater ingrowth in a wide arc along the limbal edge toward the injection site. […] To ascertain that the observed angiogenesis was not secondary to an inflammatory process some eyes with a positive response were removed and stained with H&E and a nonspecific esterase stain as early as two days after implantation.

Another test relates to fibroblasts. In words: Cell migration assay (Boyden chamber). Also noted: Chemokinesis: scale not given here. Particulars: score, Boyden chamber, scale not defined; potassium salts. It counts as cell-based. As for the experimental part:
Stimulation of directed movement of fibroblasts was assayed as described by Banda M.J., Knighton D.R., Hunt T.K., Werb A., Isolation of a nonmitogenic angiogenesis factor from wound fluid, Proc. Natl. Acad. Sci. 79:7773-7777, 1982. Briefly, solutions of sucrose octasulfate in PBS in concentrations resulting in final concentrations ranging from 10 -² to 10 -⁷ g/ml diluted to a final volume of 300 µℓ in DMEM supplemented with 10 percent rabbit platelet-poor plasma serum were placed in the bottom of Boyden blind-well chambers. Polylysine-coated, 5 µ -pore diameter, polycarbonate filters (Nucleopore) were placed over the test solution and 1.75-3.0 x 10⁶ fibroblasts suspended in DMEM added to the top compartment. The chambers were incubated for two and a half hours at 37 °C,
At the end of incubation of the top filter was fixed, stained and evaluated by counting the number of cells that had migrated to the bottom side of the filter. For each experiment five random fields per filter and at least 15 filters per each concentration of sucrose octasulfate were conducted. […]

Turning to sucralfate [reference compound], the “histologic response in sponge” value with granulation tissue (similar tests with sucralfate) was “strong inflammatory response with no neovascularization or fibroblast migration”.
For the compound `O=C[C@H](OS(=O)(=O)[O-])[C@@H](OS(=O)(=O)[O-])[C@H](OS(=O)(=O)[O-])[C@@H](COS(=O)(=O)[O-])OS(=O)(=O)[O-].[K+].[K+].[K+].[K+].[K+]` [Glucose Pentasulfate, potassium glucose pentasulfate], in the test on granulation tissue, the Sponge was 2.5. The Angiogenesis in the test with rabbit corneas is 2.0. Besides, the Chemokinesis in the test on fibroblasts is 3.0.
For `O=S(=O)([O-])OC[C@H]1O[C@H](O[C@H]2O[C@H](COS(=O)(=O)[O-])[C@@H](OS(=O)(=O)[O-])[C@H](OS(=O)(=O)[O-])[C@H]2OS(=O)(=O)[O-])[C@H](OS(=O)(=O)[O-])[C@@H](OS(=O)(=O)[O-])[C@@H]1OS(=O)(=O)[O-].[K+].[K+].[K+].[K+].[K+].[K+].[K+].[K+]` [Trehalose Octasulfate, potassium trehalose octasulfate] the same measures were 3.0, 3.0 and 2.0.
In the same order, the values of potassium sucrose trisulfate are 2.5, 2.0 and 3.0.
For `O=S(=O)(O)OC[C@H]1O[C@@H](OS(=O)(=O)O)[C@H](OS(=O)(=O)O)[C@@H](OS(=O)(=O)O)[C@@H]1O[C@H]1O[C@H](COS(=O)(=O)O)[C@@H](OS(=O)(=O)O)[C@H](OS(=O)(=O)O)[C@H]1OS(=O)(=O)O` [Maltose Octasulfate, potassium maltose octasulfate] the same measures were 3.0, 3.0 and 3.0.
On to “potassium stachyose persulfate [Stachyose Tetradecasulfate]”, for which the Sponge in the test on granulation tissue was found to be 2.5. The Angiogenesis in the test on rabbit corneas came out at 2.5. For the same compound, in the test on fibroblasts, the Chemokinesis amounted to 2.0.
As to “potassium melezitose persulfate [Melezitose Undecasulfate]”, the Sponge in the test on granulation tissue came to 1. Moreover, in the test on rabbit corneas, the Angiogenesis was 1. In addition, in the test on fibroblasts, the Chemokinesis was found to be 1.
In the case of `O=S(=O)([O-])OC[C@H]1O[C@@H](O[C@H]2[C@H](OS(=O)(=O)[O-])[C@@H](OS(=O)(=O)[O-])[C@H](OS(=O)(=O)[O-])O[C@@H]2COS(=O)(=O)[O-])[C@H](OS(=O)(=O)[O-])[C@@H](OS(=O)(=O)[O-])[C@H]1OS(=O)(=O)[O-].[K+].[K+].[K+].[K+].[K+].[K+].[K+].[K+]` [Beta-Lactose Octasulfate, potassium β -lactose octasulfate], the Sponge in the test with granulation tissue came out at 3.0. For the same compound, in the test with rabbit corneas, the Angiogenesis was 3.0. Besides, the Chemokinesis in the test on fibroblasts is listed as 3.0.
Take `O=C[C@H](O)[C@@H](O)[C@H](O)[C@H](O)COS(=O)(=O)[O-].[K+]` [Glucose-6-Sulfate, potassium D-glucose-6-sulfate, reference compound]: the Sponge in the test with granulation tissue is 1. Further, the Angiogenesis in the test with rabbit corneas was determined as 1. Also, the Chemokinesis with fibroblasts turned out to be 1.
Regarding `O=C[C@@H](OS(=O)(=O)[O-])[C@@H](OS(=O)(=O)[O-])[C@H](OS(=O)(=O)[O-])[C@@H](COS(=O)(=O)[O-])OS(=O)(=O)[O-].[K+].[K+].[K+].[K+].[K+]` [Mannose Pentasulfate, potassium mannose pentasulfate], in the test with granulation tissue, the Sponge came to 3.0. Further, in the test on rabbit corneas, the Angiogenesis is recorded as 3.0. For the same compound, the Chemokinesis in the test on fibroblasts came to 4.0.
